# Where a SMILES comes first, the peptide text is derived from it. Side-chain parts run from the residue outwards. [ ]: non-standard residue; d: D form. The star is where a group is joined. 2Nal = N[C@@H](Cc1ccc2ccccc2c1)C(=O)O; dNMeOrn = CN[C@H](CCCN)C(=O)O; 4Abz = Nc1ccc(C(=O)O)cc1; X1 = NCCNCC(CNCCN)C(=O)*; dDap = NC[C@@H](N)C(=O)O
# Assay: Patient radiation dosimetry (OLINDA/EXM, RADAR/MIRD)
# Assay type: in vivo, human
# Settings: for Absorbed organ dose Adrenals / Absorbed organ dose Brain / Absorbed organ dose Breast / Absorbed organ dose Gallbladder wall / Absorbed organ dose Heart wall / Absorbed organ dose Kidneys / Absorbed organ dose LLI wall / Absorbed organ dose Liver / Absorbed organ dose Lungs / Absorbed organ dose Muscle / Absorbed organ dose Osteogenic cells / Absorbed organ dose Ovaries / Absorbed organ dose Pancreas / Absorbed organ dose Red marrow / Absorbed organ dose Skin / Absorbed organ dose Small intestine / Absorbed organ dose Spleen / Absorbed organ dose Stomach wall / Absorbed organ dose Testes / Absorbed organ dose Thymus / Absorbed organ dose Thyroid / Absorbed organ dose Total body / Absorbed organ dose ULI wall / Absorbed organ dose Urinary bladder wall / Absorbed organ dose Uterus: per 1 MBq
# Experimental: Radiation dosimetry calculations were performed using the RADAR (Radiation Dose Assessment Resource) method as implemented in the OLINDA/EXM software and according to the recommendations of the Medical Internal Radiation Dose (MIRD) committee. The individual absorbed organ doses (ODs) and the effective doses (EDs) were corrected to consider the current tissue weighting factors of ICRP 103 [38]. For a detailed description of image analysis for dosimetry, please refer to the supplementary materials section.
# The Xeleris^TM Dosimetry Toolkit (GE Healthcare, Milwaukee, USA) was used to perform full organ segmentation by an experienced user. This was performed manually on CT images of organs (kidneys, liver, spleen, heart, lungs, lumbar vertebrae 2-4) to define the regions and volumes of interest (VOIs) for gamma camera scans and SPECT analysis. Quantification of the activity in the VOIs was carried out as converting counts in the VOIs by a calibration factor to the average activity per milliliter and per organ.
# The VOIs were transferred from SPECT/CT to the planar images. Additional ROIs for the whole body and a background region adjacent to the head were drawn on the planar images.
# The VOIs were used to determine the masses of the individual organs. For the lungs, a density of 0.288 g/mL was used. For all organs not covered by any VOI, the uptake was summed as the contribution from the remainder of the body in the dose calculation.
# The time-integrated activity coefficients of all contoured organs were determined using the hybrid planar/SPECT method. Thus, the shape of the time-activity curves were estimated based on the planar images using the NUKFIT software and then scaled to activity values using the SPECT/CT. The accumulated activity in the bone marrow was calculated using the activity in the lumbar vertebrae 2-4 with the assumption that these contain 6.7% of the red bone marrow.
# Radiation dosimetry calculations were performed using the RADAR (Radiation Dose Assessment Resource) method as implemented in the OLINDA/EXM software and according to the recommendations of the Medical Internal Radiation Dose (MIRD) committee. The OLINDA/EXM application (version 1.0) was used to calculate the individual absorbed organ doses (ODs) and the effective doses (EDs) by using the time-integrated activity coefficients and the individual patients’ organ masses. A mass of 1500 g for the red bone marrow as assumed for all patients. The EDs were afterwards corrected to consider the current tissue weighting factors of ICRP 103 [16]. The absorbed OD and ED were evaluated for each patient and then averaged across all the patients.
smiles,measurement,setting,value
"C[C@@H](NC(=O)[C@@H](CCCNC(=N)N)NC(=O)[C@@H](CN)NC(=O)C(CNCCN)CNCCN)C(=O)Nc1ccc(C(=O)NCCC[C@@H]2C(=O)N[C@@H](CCCNC(=N)N)C(=O)N[C@@H](Cc3ccc4ccccc4c3)C(=O)NCC(=O)N[C@H](Cc3ccc(O)cc3)C(=O)N2C)cc1 [[^99mTc]Tc-N4-L6-CPCR4, [^99mTc]Tc-N4-dap-r-a-Abz-CPCR4, metal not drawn] (cyclo([dY][dNMeOrn]([4Abz-dA-dR-dDap-X1])R[2Nal]G))","absorbed dose bone marrow, median",four patients,9.40E − 03 mGy/MBq
same,"absorbed dose bone marrow, range",four patients,6.2E − 03–13.50E − 03 mGy/MBq
same,"absorbed dose kidneys, median",four patients,1.23E − 02 mGy/MBq
same,"absorbed dose kidneys, range",four patients,0.94 E − 02–1.37E − 02 mGy/MBq
same,"absorbed dose spleen, median",four patients,1.95E − 02 mGy/MBq
same,"absorbed dose spleen, range",four patients,1.61E − 02–2.38E − 02 mGy/MBq
same,"effective dose per unit of administered activity, median",four patients,5.3E − 03 mSv/MBq
same,"effective dose per unit of administered activity, range",four patients,4.3E − 03–6.7E − 03 mSv/MBq
same,Absorbed organ dose Adrenals,Median,0.0065 mGy
same,Absorbed organ dose Brain,Median,0.0030 mGy
same,Absorbed organ dose Breast,Median,0.0025 mGy
same,Absorbed organ dose Gallbladder wall,Median,0.0060 mGy
same,Absorbed organ dose Heart wall,Median,0.0044 mGy
same,Absorbed organ dose Kidneys,Median,0.0123 mGy
same,Absorbed organ dose LLI wall,Median,0.0048 mGy
same,Absorbed organ dose Liver,Median,0.0077 mGy
same,Absorbed organ dose Lungs,Median,0.0063 mGy
same,Absorbed organ dose Muscle,Median,0.0035 mGy
same,Absorbed organ dose Osteogenic cells,Median,0.0136 mGy
same,Absorbed organ dose Ovaries,Median,0.0050 mGy
same,Absorbed organ dose Pancreas,Median,0.0070 mGy
same,Absorbed organ dose Red marrow,Median,0.0094 mGy
same,Absorbed organ dose Skin,Median,0.0023 mGy
same,Absorbed organ dose Small intestine,Median,0.0049 mGy
same,Absorbed organ dose Spleen,Median,0.0195 mGy
same,Absorbed organ dose Stomach wall,Median,0.0051 mGy
same,Absorbed organ dose Testes,Median,0.0026 mGy
same,Absorbed organ dose Thymus,Median,0.0036 mGy
same,Absorbed organ dose Thyroid,Median,0.0033 mGy
same,Absorbed organ dose Total body,Median,0.0037 mGy
same,Absorbed organ dose ULI wall,Median,0.0049 mGy
same,Absorbed organ dose Urinary bladder wall,Median,0.0041 mGy
same,Absorbed organ dose Uterus,Median,0.0047 mGy
same,Absorbed organ dose Adrenals,Patient 1,0.0053 mGy
same,Absorbed organ dose Brain,Patient 1,0.0023 mGy
same,Absorbed organ dose Breast,Patient 1,0.0021 mGy
same,Absorbed organ dose Gallbladder wall,Patient 1,0.0051 mGy
same,Absorbed organ dose Heart wall,Patient 1,0.0040 mGy
same,Absorbed organ dose Kidneys,Patient 1,0.0137 mGy
same,Absorbed organ dose LLI wall,Patient 1,0.0037 mGy
same,Absorbed organ dose Liver,Patient 1,0.0066 mGy
same,Absorbed organ dose Lungs,Patient 1,0.0051 mGy
same,Absorbed organ dose Muscle,Patient 1,0.0028 mGy
same,Absorbed organ dose Osteogenic cells,Patient 1,0.0099 mGy
same,Absorbed organ dose Ovaries,Patient 1,0.0040 mGy
same,Absorbed organ dose Pancreas,Patient 1,0.0055 mGy
same,Absorbed organ dose Red marrow,Patient 1,0.0065 mGy
same,Absorbed organ dose Skin,Patient 1,0.0018 mGy
same,Absorbed organ dose Small intestine,Patient 1,0.0041 mGy
same,Absorbed organ dose Spleen,Patient 1,0.0161 mGy
same,Absorbed organ dose Stomach wall,Patient 1,0.0040 mGy
same,Absorbed organ dose Testes,Patient 1,0.0023 mGy
same,Absorbed organ dose Thymus,Patient 1,0.0030 mGy
same,Absorbed organ dose Thyroid,Patient 1,0.0028 mGy
same,Absorbed organ dose Total body,Patient 1,0.0028 mGy
same,Absorbed organ dose ULI wall,Patient 1,0.0040 mGy
same,Absorbed organ dose Urinary bladder wall,Patient 1,0.0033 mGy
same,Absorbed organ dose Uterus,Patient 1,0.0038 mGy
same,Absorbed organ dose Adrenals,Patient 2,0.0078 mGy
same,Absorbed organ dose Brain,Patient 2,0.0032 mGy
same,Absorbed organ dose Breast,Patient 2,0.0028 mGy
same,Absorbed organ dose Gallbladder wall,Patient 2,0.0068 mGy
same,Absorbed organ dose Heart wall,Patient 2,0.0049 mGy
same,Absorbed organ dose Kidneys,Patient 2,0.0117 mGy
same,Absorbed organ dose LLI wall,Patient 2,0.0053 mGy
same,Absorbed organ dose Liver,Patient 2,0.0087 mGy
same,Absorbed organ dose Lungs,Patient 2,0.0079 mGy
same,Absorbed organ dose Muscle,Patient 2,0.0038 mGy
same,Absorbed organ dose Osteogenic cells,Patient 2,0.0162 mGy
same,Absorbed organ dose Ovaries,Patient 2,0.0054 mGy
same,Absorbed organ dose Pancreas,Patient 2,0.0083 mGy
same,Absorbed organ dose Red marrow,Patient 2,0.0135 mGy
same,Absorbed organ dose Skin,Patient 2,0.0024 mGy
same,Absorbed organ dose Small intestine,Patient 2,0.0053 mGy
same,Absorbed organ dose Spleen,Patient 2,0.0238 mGy
same,Absorbed organ dose Stomach wall,Patient 2,0.0057 mGy
same,Absorbed organ dose Thymus,Patient 2,0.0040 mGy
same,Absorbed organ dose Thyroid,Patient 2,0.0032 mGy
same,Absorbed organ dose Total body,Patient 2,0.0039 mGy
same,Absorbed organ dose ULI wall,Patient 2,0.0055 mGy
same,Absorbed organ dose Urinary bladder wall,Patient 2,0.0043 mGy
same,Absorbed organ dose Uterus,Patient 2,0.0049 mGy
same,Absorbed organ dose Adrenals,Patient 3,0.0083 mGy
same,Absorbed organ dose Brain,Patient 3,0.0039 mGy
same,Absorbed organ dose Breast,Patient 3,0.0032 mGy
same,Absorbed organ dose Gallbladder wall,Patient 3,0.0073 mGy
same,Absorbed organ dose Heart wall,Patient 3,0.0054 mGy
same,Absorbed organ dose Kidneys,Patient 3,0.0128 mGy
same,Absorbed organ dose LLI wall,Patient 3,0.0062 mGy
same,Absorbed organ dose Liver,Patient 3,0.0089 mGy
same,Absorbed organ dose Lungs,Patient 3,0.0075 mGy

# Source: PMC10611619, “[^99mTc]Tc-PentixaTec: development, extensive pre-clinical evaluation, and first human experience” (European Journal of Nuclear Medicine and Molecular Imaging, 2023)
